{
  "source": "PubChem BioAssay AID1259407",
  "about": "(Chemical Carcinogenesis Research Information System (CCRIS), 2018)",
  "system": "CCRIS mutagenicity, Ames/micronucleus/aberration tests",
  "assay": "CCRIS mutagenicity studies",
  "key": {"[1]": {"conditions": "Test System: AMES SALMONELLA TYPHIMURIUM, Strain/Indicator: TA98, Metabolic Activation: NONE, Method: STANDARD PLATE"}, "[2]": {"conditions": "Test System: AMES SALMONELLA TYPHIMURIUM, Strain/Indicator: TA100, Metabolic Activation: NONE, Method: STANDARD PLATE"}, "[3]": {"conditions": "Test System: AMES SALMONELLA TYPHIMURIUM, Strain/Indicator: TA98, Metabolic Activation: NONE, Method: PREINCUBATION"}, "[4]": {"conditions": "Test System: AMES SALMONELLA TYPHIMURIUM, Strain/Indicator: TA100, Metabolic Activation: NONE, Method: PREINCUBATION"}},
  "note": "Activity calls are given as the source filed them. No rule for the calls is given here.",
  "data": [
    {"smiles": "O=C(CCl)CCl", "values": [
      {"measurement": "mutagenic call", "setting": "[1]", "value": "inactive; negative"},
      {"measurement": "mutagenic call", "setting": "Test System: AMES SALMONELLA TYPHIMURIUM, Strain/Indicator: TA100, Metabolic Activation: NONE, Method: FLUCTUATION TEST", "value": "active; positive"},
      {"measurement": "mutagenic call", "setting": "[2]", "value": "active; positive"},
      {"measurement": "mutagenic call", "setting": "Test System: AMES SALMONELLA TYPHIMURIUM, Strain/Indicator: TA100, Metabolic Activation: RAT, LIVER, S-9, AROCLOR 1254, Method: FLUCTUATION TEST", "value": "inactive; negative"},
      {"measurement": "mutagenic call", "setting": "Test System: AMES SALMONELLA TYPHIMURIUM, Strain/Indicator: TA100, Metabolic Activation: RAT, LIVER, S-9, AROCLOR 1254, Method: STANDARD PLATE", "value": "active; positive"},
      {"measurement": "mutagenic call", "setting": "Test System: AMES SALMONELLA TYPHIMURIUM, Strain/Indicator: TA1535, Metabolic Activation: NONE, Method: STANDARD PLATE", "value": "active; positive"},
      {"measurement": "mutagenic call", "setting": "Test System: AMES SALMONELLA TYPHIMURIUM, Strain/Indicator: TA1535, Metabolic Activation: RAT, LIVER, S-9, AROCLOR 1254, Method: STANDARD PLATE", "value": "active; positive"}
    ]},
    {"smiles": "O=C(Nc1ccc(Br)cc1)c1csc([N+](=O)[O-])c1", "values": [
      {"measurement": "mutagenic call", "setting": "[1]", "value": "active; positive"},
      {"measurement": "mutagenic call", "setting": "[2]", "value": "active; positive"}
    ]},
    {"smiles": "OC1C=Cc2c(cc3ccc4cccc5ccc2c3c45)C1", "note": "(configuration not stated)", "values": [
      {"measurement": "mutagenic call", "setting": "Test System: AMES SALMONELLA TYPHIMURIUM, Strain/Indicator: TA98, Metabolic Activation: RAT, LIVER, S-9, AROCLOR 1254, Method: STANDARD PLATE", "value": "active; positive"}
    ]},
    {"smiles": "CNS(=O)(=O)c1ccc(N)cc1", "values": [
      {"measurement": "mutagenic call", "setting": "[3]", "value": "inactive; negative"},
      {"measurement": "mutagenic call", "setting": "Test System: AMES SALMONELLA TYPHIMURIUM, Strain/Indicator: TA98, Metabolic Activation: RAT, LIVER, S-9, AROCLOR 1254, Method: PREINCUBATION", "value": "inactive; negative"},
      {"measurement": "mutagenic call", "setting": "[4]", "value": "inactive; negative"},
      {"measurement": "mutagenic call", "setting": "Test System: AMES SALMONELLA TYPHIMURIUM, Strain/Indicator: TA100, Metabolic Activation: RAT, LIVER, S-9, AROCLOR 1254, Method: PREINCUBATION", "value": "inactive; negative"}
    ]},
    {"smiles": "CC(=O)c1ccncc1", "values": [
      {"measurement": "mutagenic call", "setting": "End Point: IN VITRO CHROMOSOMAL ABERRATIONS, Test System: CHO-LB CELLS, Metabolic Activation: RAT, LIVER, S-9, AROCLOR 1254", "value": "active; positive"},
      {"measurement": "mutagenic call", "setting": "Test System: AMES SALMONELLA TYPHIMURIUM, Strain/Indicator: TA97, Metabolic Activation: HAMSTER, LIVER, S-9, AROCLOR 1254 (10 OR 30%), Method: PREINCUBATION", "value": "inactive; negative"},
      {"measurement": "mutagenic call", "setting": "Test System: AMES SALMONELLA TYPHIMURIUM, Strain/Indicator: TA97, Metabolic Activation: NONE, Method: PREINCUBATION", "value": "inactive; negative"},
      {"measurement": "mutagenic call", "setting": "Test System: AMES SALMONELLA TYPHIMURIUM, Strain/Indicator: TA97, Metabolic Activation: RAT, LIVER, S-9, AROCLOR 1254 (10 OR 30%), Method: PREINCUBATION", "value": "inactive; negative"},
      {"measurement": "mutagenic call", "setting": "Test System: AMES SALMONELLA TYPHIMURIUM, Strain/Indicator: TA98, Metabolic Activation: HAMSTER, LIVER, S-9, AROCLOR 1254 (10 OR 30%), Method: PREINCUBATION", "value": "inactive; negative"},
      {"measurement": "mutagenic call", "setting": "[3]", "value": "inactive; negative"},
      {"measurement": "mutagenic call", "setting": "Test System: AMES SALMONELLA TYPHIMURIUM, Strain/Indicator: TA98, Metabolic Activation: RAT, LIVER, S-9, AROCLOR 1254 (10 OR 30%), Method: PREINCUBATION", "value": "inactive; negative"},
      {"measurement": "mutagenic call", "setting": "Test System: AMES SALMONELLA TYPHIMURIUM, Strain/Indicator: TA100, Metabolic Activation: HAMSTER, LIVER, S-9, AROCLOR 1254 (10 OR 30%), Method: PREINCUBATION", "value": "inactive; negative"},
      {"measurement": "mutagenic call", "setting": "[4]", "value": "inactive; negative"},
      {"measurement": "mutagenic call", "setting": "Test System: AMES SALMONELLA TYPHIMURIUM, Strain/Indicator: TA100, Metabolic Activation: RAT, LIVER, S-9, AROCLOR 1254 (10 OR 30%), Method: PREINCUBATION", "value": "inactive; negative"},
      {"measurement": "mutagenic call", "setting": "Test System: AMES SALMONELLA TYPHIMURIUM, Strain/Indicator: TA1535, Metabolic Activation: HAMSTER, LIVER, S-9, AROCLOR 1254 (10 OR 30%), Method: PREINCUBATION", "value": "inactive; negative"},
      {"measurement": "mutagenic call", "setting": "Test System: AMES SALMONELLA TYPHIMURIUM, Strain/Indicator: TA1535, Metabolic Activation: NONE, Method: PREINCUBATION", "value": "inactive; negative"},
      {"measurement": "mutagenic call", "setting": "Test System: AMES SALMONELLA TYPHIMURIUM, Strain/Indicator: TA1535, Metabolic Activation: RAT, LIVER, S-9, AROCLOR 1254 (10 OR 30%), Method: PREINCUBATION", "value": "inactive; negative"}
    ]}
  ]
}
